Structures are written as SMILES. pIC50: −log10 of the molar value.

The target of one assay is T1, human DGKα (Homo sapiens, UniProt P23743).
T1 construct: TVMV protease cleavage site (C); Hexa-His (C); made in house; host or cells: Sf9 insect cells (baculovirus)
The assay is described as follows: In vitro DGK inhibition assay, DGKα liposome (LIPGLO) assay. The format is biochemical. Particulars: read-out: Enzyme Inhibition DGKalpha IC50. As for the experimental part:
(§1) The DGKα and DGKζ reactions were performed using either extruded liposome (DGKα and DGKζ LIPGLO assays) or detergent/lipid micelle substrate (DGKα and DGKζ assays). The reactions were carried out in 50 mM MOPS pH 7.5, 100 mM NaCl, 10 mM MgCl2, 1 μM CaCl2, and 1 mM DTT (assay buffer). The reactions using a detergent/lipid micelle substrate also contained 50 mM octyl B-D-glucopyranoside. The lipid substrate concentrations were 11 mM PS and 1 mM DAG for the detergent/lipid micelle reactions. The lipid substrate concentrations were 2 mM PS, 0.25 mM DAG, and 2.75 mM PC for the extruded liposome reactions (5 mM total lipid). The reactions were carried out in 150 μM ATP The enzyme concentrations for the DGKα and DGKζ were 5 nM
(§2) The compound inhibition studies were carried out as follows: 25 nL (ADPGLO assay) or 50 nL (LIPGLO assay) droplets of each test compound (top concentration 10 mM with 11 point, 3-fold dilution series for each compound) solubilized in DMSO were transferred to wells of a white 1536 well plate (Corning 3725). A 5 mL enzyme/lipid substrate solution at 2× final reaction concentration was prepared by combining 2.5 mL 4× enzyme solution (20 nM DGKα, or DGKζ (prepared as described below) in assay buffer) and 2.5 mL of either 4× liposome or 4× detergent/lipid micelle solution (compositions described below) and incubated at room temperature for 10 minutes. Next, 1 μL 2× enzyme/lipid substrate solution was added to wells containing the test compound and reactions were initiated with the addition of 1 μL 300 uM ATP. The reactions were allowed to proceed for 2 hr (ADPGLO assay) or 1 hr (LIPGLO assay), after which 2 μL Glo Reagent (Promega V9101) was added and incubated for 40 minutes. Next, 4 μL Kinase Detection Reagent was added and incubated for 30 minutes. Luminescence was recorded using an EnVision microplate reader. […] The compounds were evaluated at 11 concentrations to determine IC50.
(§3) The lipid composition was 5 mol % DAG (Avanti 8008110), 40 mol % PS (Avanti 840035P), and 55 mol % PC (Avanti 850457) at a total lipid concentration of 7-8 mg/mL for the liposome solution. The PC, DAG, and PS were dissolved in chloroform, combined, and dried in vacuo to a thin film. The lipids were hydrated to 20 mM in 50 mM MOPS pH 7.5, 100 mM NaCl, 5 mM MgCl2, and were freeze-thawed five times. The lipid suspension was extruded through a 100 nm polycarbonate filter 10-12 times. […] The liposome preparation was stored at 4° C. for as long as four weeks.
(§4) The lipid composition was 5 mol % DAG (Avanti 8008110), 40 mol % PS (Avanti 840035P), and 55 mol % PC (Avanti 850457) at a total lipid concentration of 15.2 mg/mL for the 4× liposome solution. The PC, DAG, and PS were dissolved in chloroform, combined, and dried in vacuo to a thin film. The lipids were hydrated to 20 mM in 50 mM MOPS pH 7.5, 100 mM NaCl, 5 mM MgCl2, and were freeze-thawed five times. The lipid suspension was extruded through a 100 nm polycarbonate filter eleven times. […] The liposome preparation was stored at 4° C. for as long as four weeks.
(§5) Human DGK-alpha-TVMV-His-pFBgate and human DGK-zeta-transcript variant-2-TVMV-His-pFBgate baculovirus samples were generated using the Bac-to-Bac baculovirus expression system (Invitrogen) according to the manufacturer's protocol. […] Baculovirus amplification was achieved using infected Sf9 cells at 1:1500 virus/cell ratios, and grown for 65 hours at 27° C. post-transfection.
(§6) The expression scale up for each protein was carried out in the Cellbag 50L WAVE-Bioreactor System 20/50 from GE Healthcare Bioscience. 12 L of 2×10^6 cells/mL Sf9 cells (Expression System, Davis, CA) grown in ESF921 insect medium (Expression System) were infected with virus stock at 1:200 virus/cell ratios, and grown for 66-68 hours at 27° C. post-infection.

A further assay concerns the target T2, human DGKζ (Homo sapiens, UniProt Q13574).
T2 construct: TVMV protease cleavage site (C); Hexa-His (C); made in house; host or cells: Sf9 insect cells (baculovirus)
Nature of the assay: In vitro DGK inhibition assay, DGKζ liposome (LIPGLO) assay. The format is biochemical. The settings on record: read-out: Enzyme Inhibition DGKzeta IC50. The procedure:
as §1, §2, §3, §4, §5, §6

T1 sequence (P23743 with tags, fused parts or gaps): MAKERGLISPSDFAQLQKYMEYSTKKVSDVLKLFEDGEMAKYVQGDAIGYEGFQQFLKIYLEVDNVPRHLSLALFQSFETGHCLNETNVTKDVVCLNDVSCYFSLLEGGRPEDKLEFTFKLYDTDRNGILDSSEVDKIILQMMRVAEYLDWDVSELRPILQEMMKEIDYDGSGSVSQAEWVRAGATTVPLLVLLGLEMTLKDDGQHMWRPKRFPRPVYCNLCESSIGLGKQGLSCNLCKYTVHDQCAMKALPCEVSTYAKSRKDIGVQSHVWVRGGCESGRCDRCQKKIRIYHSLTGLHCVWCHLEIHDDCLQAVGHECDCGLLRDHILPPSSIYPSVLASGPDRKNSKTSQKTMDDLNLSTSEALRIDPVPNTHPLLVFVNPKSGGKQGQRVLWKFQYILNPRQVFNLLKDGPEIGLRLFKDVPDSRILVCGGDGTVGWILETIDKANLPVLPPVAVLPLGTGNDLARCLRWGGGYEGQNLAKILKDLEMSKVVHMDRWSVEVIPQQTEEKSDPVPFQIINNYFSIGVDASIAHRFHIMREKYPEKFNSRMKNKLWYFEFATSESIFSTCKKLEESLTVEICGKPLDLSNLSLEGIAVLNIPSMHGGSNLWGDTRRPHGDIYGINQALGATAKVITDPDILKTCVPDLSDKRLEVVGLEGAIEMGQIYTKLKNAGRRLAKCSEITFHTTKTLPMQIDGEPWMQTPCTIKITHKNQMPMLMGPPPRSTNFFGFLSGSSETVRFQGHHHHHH
T2 sequence (Q13574 with tags, fused parts or gaps isoform Q13574-4): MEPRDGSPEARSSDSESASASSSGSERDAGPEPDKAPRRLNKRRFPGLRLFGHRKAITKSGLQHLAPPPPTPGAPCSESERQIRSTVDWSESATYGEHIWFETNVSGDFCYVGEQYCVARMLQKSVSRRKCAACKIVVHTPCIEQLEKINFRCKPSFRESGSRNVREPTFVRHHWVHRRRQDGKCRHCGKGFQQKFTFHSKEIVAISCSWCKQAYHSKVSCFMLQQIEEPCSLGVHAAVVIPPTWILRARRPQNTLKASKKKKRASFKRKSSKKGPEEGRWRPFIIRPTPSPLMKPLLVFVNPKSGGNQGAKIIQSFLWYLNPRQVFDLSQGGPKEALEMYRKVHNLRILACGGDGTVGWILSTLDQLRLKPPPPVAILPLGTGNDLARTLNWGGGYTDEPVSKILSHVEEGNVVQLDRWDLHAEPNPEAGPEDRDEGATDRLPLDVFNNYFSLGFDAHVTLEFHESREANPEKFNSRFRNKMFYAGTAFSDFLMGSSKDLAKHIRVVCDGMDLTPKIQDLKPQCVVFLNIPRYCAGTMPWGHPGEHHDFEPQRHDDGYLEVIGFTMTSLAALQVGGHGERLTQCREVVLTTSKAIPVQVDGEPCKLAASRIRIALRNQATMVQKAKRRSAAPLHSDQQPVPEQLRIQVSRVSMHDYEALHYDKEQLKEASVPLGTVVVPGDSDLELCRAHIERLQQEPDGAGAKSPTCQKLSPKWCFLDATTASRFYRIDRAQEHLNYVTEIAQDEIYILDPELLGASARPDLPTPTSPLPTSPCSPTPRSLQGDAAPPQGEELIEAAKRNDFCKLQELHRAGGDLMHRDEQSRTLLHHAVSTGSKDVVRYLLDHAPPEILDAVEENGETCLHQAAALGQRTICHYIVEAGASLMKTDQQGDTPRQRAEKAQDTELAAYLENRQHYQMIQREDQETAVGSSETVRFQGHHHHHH

As to `Cn1c(=O)cc(N(CC2CC2)c2cccc(-c3cccnc3)c2)c2nc(C#N)ccc21` [Example 106, 8-((cyclopropylmethyl)(3-(pyridin-3-yl)phenyl)amino)-5-methyl-6-oxo-5,6-dihydro-1,5-naphthyridine-2-carbonitrile], the pIC50 on human DGKα is 6.18; on human DGKζ it was 5.66.

On to `CN(c1cccc(-c2ccc(C3CC3)cc2)c1)c1cc(=O)n(C)c2ccc(C#N)nc12` [Example 4, 8-((4′-cyclopropyl-[1,1′-biphenyl]-3-yl)(methyl)amino)-5-methyl-6-oxo-5,6-dihydro-1,5-naphthyridine-2-carbonitrile], for which the pIC50 at human DGKα was 7.31; at human DGKζ, < 4.42.

As for `Cn1c(=O)nc(N(CC2CC2)c2ccc(C3CC3)cc2)c2nc(C#N)ccc21` [Example 57, 4-((cyclopropylmethyl)(4-cyclopropylphenyl)amino)-1-methyl-2-oxo-1,2-dihydropyrido[3,2-d]pyrimidine-6-carbonitrile], the pIC50 at human DGKα was 5.38; on human DGKζ it was 6.82.

Regarding `Cc1cccc(-c2cccc(N(CC3CC3)c3cc(=O)n(C)c4ccc(C#N)nc34)c2)c1` [Example 92, 8-((cyclopropylmethyl)(3′-methyl-[1,1′-biphenyl]-3-yl)amino)-5-methyl-6-oxo-5,6-dihydro-1,5-naphthyridine-2-carbonitrile], the pIC50 was 6.11 on human DGKα and 5.14 on human DGKζ.

Turning to `CN(C)c1ccc(-c2ccc(N(CC3CC3)c3cc(=O)n(C)c4ccc(C#N)nc34)cc2)cc1` [Example 87, 8-((cyclopropylmethyl)(4′-(dimethylamino)-[1,1′-biphenyl]-4-yl)amino)-5-methyl-6-oxo-5,6-dihydro-1,5-naphthyridine-2-carbonitrile], the figures for the pIC50 at human DGKα and on human DGKζ were 5.96 and 5.70, respectively.

Consider `Cn1c(=O)cc(N(CC2CC2)c2ccc(-c3cccc(O)c3)cc2)c2nc(C#N)ccc21` [Example 81, 8-((cyclopropylmethyl)(3′-hydroxy-[1,1′-biphenyl]-4-yl)amino)-5-methyl-6-oxo-5,6-dihydro-1,5-naphthyridine-2-carbonitrile], for which the pIC50 is 5.42 on human DGKα and 5.43 on human DGKζ.

For the molecule `CN(C)C(=O)c1cccc(-c2cccc(N(CC3CC3)c3cc(=O)n(C)c4ccc(C#N)nc34)c2)c1` [Example 108, 3′-((6-cyano-1-methyl-2-oxo-1,2-dihydro-1,5-naphthyridin-4-yl)(cyclopropylmethyl)amino)-N,N-dimethyl-[1,1′-biphenyl]-3-carboxamide], the pIC50 was 4.36 at human DGKα and 5.43 at human DGKζ.

For the molecule `CN(c1ccc(F)cc1)c1cc(=O)n(C)c2ccc(C#N)nc12` [Example 23, 8-((4-fluorophenyl)(methyl)amino)-5-methyl-6-oxo-5,6-dihydro-1,5-naphthyridine-2-carbonitrile], the pIC50 on human DGKα was 6.96; at human DGKζ, 5.31.

Consider `CC(C1CC1)N(C)c1cc(=O)n(C)c2ccc(C#N)nc12` (racemic) [Example 32, 8-((1-cyclopropylethyl)(methyl)amino)-5-methyl-6-oxo-5,6-dihydro-1,5-naphthyridine-2-carbonitrile], for which the pIC50 is 5.85 at human DGKα and 4.05 at human DGKζ.

As to `CCN(c1ccc(OC)cc1)c1cc(=O)n(C)c2ccc(C#N)nc12` [Example 34, 8-(ethyl(4-methoxyphenyl)amino)-5-methyl-6-oxo-5,6-dihydro-1,5-naphthyridine-2-carbonitrile], the pIC50 on human DGKα is 5.19; at human DGKζ, 5.60.

As to `CN(C)C(=O)c1ccc(-c2cccc(N(CC3CC3)c3cc(=O)n(C)c4ccc(C#N)nc34)c2)cc1` [Example 101, 3′-((6-cyano-1-methyl-2-oxo-1,2-dihydro-1,5-naphthyridin-4-yl)(cyclopropylmethyl)amino)-N,N-dimethyl-[1,1′-biphenyl]-4-carboxamide], the results for the pIC50 at human DGKα and at human DGKζ were 6.03 and 4.89, respectively.

Regarding `Cn1c(=O)cc(N(CC2CC2)c2ccc(OC(F)(F)F)cc2)c2nc(C#N)ccc21` [Example 41, 8-((cyclopropylmethyl)(4-(trifluoromethoxy)phenyl)amino)-5-methyl-6-oxo-5,6-dihydro-1,5-naphthyridine-2-carbonitrile], the pIC50 was 5.08 on human DGKα and 5.52 at human DGKζ.

On to `COc1cc(-c2cccc(N(CC3CC3)c3cc(=O)n(C)c4ccc(C#N)nc34)c2)ccn1` [Example 110, 8-((cyclopropylmethyl)(3-(2-methoxypyridin-4-yl)phenyl)amino)-5-methyl-6-oxo-5,6-dihydro-1,5-naphthyridine-2-carbonitrile], for which the pIC50 was 4.92 on human DGKα and 5.14 at human DGKζ.

For `COc1ccccc1-c1cccc(N(CC2CC2)c2cc(=O)n(C)c3ccc(C#N)nc23)c1` [Example 96, 8-((cyclopropylmethyl)(2′-methoxy-[1,1′-biphenyl]-3-yl)amino)-5-methy-6-oxo-5,6-dihydro-1,5-naphthyridine-2-carbonitrile], the pIC50 at human DGKα was 5.54; at human DGKζ, 5.27.

Turning to `COc1cccc(-c2ccc(N(CC3CC3)c3cc(=O)n(C)c4ccc(C#N)nc34)cc2)c1` [Example 77, 8-((cyclopropylmethyl)(3′-methoxy-[1,1′-biphenyl]-4-yl)amino)-5-methyl-6-oxo-5,6-dihydro-1,5-naphthyridine-2-carbonitrile], the results for the pIC50 at human DGKα and on human DGKζ were 5.02 and 5.40, respectively.

In the case of `Cc1ccccc1N(CC1CC1)c1cc(=O)n(C)c2ccc(C#N)nc12` [Example 49, 8-((cyclopropylmethyl)(o-tolyl)amino)-5-methyl-6-oxo-5,6-dihydro-1,5-naphthyridine-2-carbonitrile], the pIC50 at human DGKα was 5.32; at human DGKζ, 4.25.

For `Cn1c(=O)cc(N(CC2CC2)c2cccc(-c3ccccc3Cl)c2)c2nc(C#N)ccc21` [Example 97, 8-((2′-chloro-[1,1′-biphenyl]-3-yl)(cyclopropylmethyl)amino)-5-methyl-6-oxo-5,6-dihydro-1,5-naphthyridine-2-carbonitrile], the pIC50 at human DGKα was 5.72; at human DGKζ, 5.10.

With `COc1cccc(-c2cccc(N(CC3CC3)c3cc(=O)n(C)c4ccc(C#N)nc34)c2)c1` [Example 95, 8-((cyclopropylmethyl)(3′-methoxy-[1,1′-biphenyl]-3-yl)amino)-5-methyl-6-oxo-5,6-dihydro-1,5-naphthyridine-2-carbonitrile], the pIC50 is 5.70 at human DGKα and 5.21 at human DGKζ.

Regarding `CN(C)C(=O)c1ccc(-c2ccc(N(CC3CC3)c3cc(=O)n(C)c4ccc(C#N)nc34)cc2)cc1` [Example 82, 4′-((6-cyano-1-methyl-2-oxo-1,2-dihydro-1,5-naphthyridin-4-yl) (cyclopropylmethyl)amino)-N,N-dimethyl-[1,1′-biphenyl]-4-carboxamide], the pIC50 on human DGKα is 5.42; on human DGKζ it was 5.70.

`Cn1c(=O)cc(N(CC2CC2)c2ccc(C3CC3)cc2)c2nc(C#N)ccc21` [Example 40, 8-((cyclopropylmethyl)(4-cyclopropylphenyl)amino)-5-methyl-6-oxo-5,6-dihydro-1,5-naphthyridine-2-carbonitrile]: the pIC50 on human DGKα was 5.57; on human DGKζ, 6.72.

The pIC50 is the IC50 on a negative log10 scale, so that one unit is a factor of ten.

The values above are taken from patent publication US20260049076A1, “Tertiary Amine Substituted Bicyclic Compounds Useful as T Cell Activators” (BRISTOL-MYERS SQUIBB COMPANY, priority 2022, published 2026).
